One test concerns hASMCs. Kind of test: Calcium imaging using fura-2 (thapsigargin-induced Ca2+ signaling). Format: cell-based, human. The following applies: for ability to suppress Ca2+ signaling, SPLUNC1 mutants/peptides: ASMCs pre-incubated with truncated SPLUNC1 peptides (FIG. 4H); for thapsigargin (TG)-induced Ca2+ flux (peak fura-2 ratio change): human ASMCs, co-incubated 1 h. As for the experimental part:
Calcium imaging: Calcium imaging using fura-2 was adapted from a previous published protocol with minor modifications (Sheridan et al., J. Biol. Chem. 288:33509 (2013)). Briefly, hASMCs were loaded with 2 μM fura-2 AM (Invitrogen) and serosal media from HBEC cultures or recombinant SPLUNC1 at 37° C. for 1 h. Cultures were washed with a standard Ringer's solution (101 mM NaCl, 12 mM NaHCO3, 1.2 mM MgCl2, 1.2 mM CaCl2, […], 24 mM HEPES, 10 mM glucose, pH 7.4) or with Ca^2+-free Ringer's solution as indicated. Cultures were then placed in the Ringer's solution, and images were collected with a 40×1.4 NA oil objective on a Nikon Ti-S inverted microscope. Fura-2 fluorescence was acquired alternately at 340 and 380 nm (emission >450 nm) using LUDL filter wheels, obtained with an Orca FLASH 4.0 CMOS camera (Hammamatsu), and controlled with HCImageLive software. Cell bodies were identified as individual regions of interest (ROIs). Background subtraction was performed using a region without the cell. Signals were converted to relative changes (F/F0) where F0 was the ratio of the average fluorescent intensity (340/380) of ROIs at 0 time point. A total of 20 cells/coverslip were recorded. ΔF/F0 represents average peak fluorescent intensity changes of three independent experiments.

Test [1] concerns house dust mite-exposed mouse. Kind of test: House dust mite allergy model, bronchoalveolar lavage cell counts. The following applies: SPLUNC1−/− mice, HDM challenge, day 17. Type of test: in vivo. As for the experimental part:
Nasal instillation of α6 peptides to mice: SPLUNC1^(−/−) mice were exposed to 2 μg house dust mite extract in 40 μl of PBS intranasally on days 0 and day 7. After this time, they were again challenged intranasally with 20 μg HDM in 40 μl of PBS from day 14 to day 16. We Then 320 μM of the short α6 peptide was added intranasally once per day on day 15 and on day 16 and the animals sacrificed on day 17. Bronchoalveolar lavage total and differential cell counts were performed using a Kwik-Diff™ Stain Kit (Thermo Scientific). After sacrificing the animals, blood was obtained by cardiac puncture and plasma was taken by spinning down whole blood. Serum HDM-specific antibody levels were measured using an enzyme-linked immunosorbent assay (ELISA). Briefly, plates were coated overnight with 0.01% HDM in PBS and blocked with 1% BSA in PBS before the addition of serum samples that had been diluted 1:10 in blocking buffer and standards for 1 h. Plates were washed 6× with PBS containing 0.05% Tween-20 before incubation with biotinylated anti-mouse IgE (Pharmingen) at a concentration of 2 μg/ml for 1 h. Plates were washed an additional six times, streptavidin-HRP (R&D Systems) was added for 30 min and the amount of bound HDM-specific antibody was determined using TMB substrate (Thermo Scientific). To test whether α6 peptides were efficacious in vivo, a well-characterized murine allergy model was used, the house dust mite-exposed mouse (Wu T et al., Nature Communications, 2017). Since SPLUNC1^(−/−) mice have asthma-like symptoms including spontaneous inflammation and airway hyperreactivity (Wu T et al., Nature Communications, 2017; Thaikoottathil et al., Am. J. Respir. Cell Mol. Biol. 47:253 (2012)), SPLUNC1^(−/−) mice were exposed to 20 μg HDM intranasally on day 0 and […]. After this time, they were challenged with 20 μg HDM intranasally from day 14 to day 17. […] of the short α6 peptide was administered intranasally once per day on day 15 and on day 16 and sacrificed the animals were sacrificed on day 17. Bronchoalveolar lavage was performed and total and differential cell counts performed (FIG. 15).

Test [2] concerns house dust mite-exposed mouse. Kind of test: House dust mite allergy model, HDM-specific IgE by ELISA. Type of test: in vivo. The following applies: SPLUNC1−/− mice, HDM challenge; α6 peptide intranasally day 15 and day 16; serum on day 17. The procedure:
Nasal instillation of α6 peptides to mice: SPLUNC1^(−/−) mice were exposed to 2 μg house dust mite extract in 40 μl of PBS intranasally on days 0 and day 7. After this time, they were again challenged intranasally with 20 μg HDM in 40 μl of PBS from day 14 to day 16. We Then 320 μM of the short α6 peptide was added intranasally once per day on day 15 and on day 16 and the animals sacrificed on day 17. Bronchoalveolar lavage total and differential cell counts were performed using a Kwik-Diff™ Stain Kit (Thermo Scientific). After sacrificing the animals, blood was obtained by cardiac puncture and plasma was taken by spinning down whole blood. Serum HDM-specific antibody levels were measured using an enzyme-linked immunosorbent assay (ELISA). Briefly, plates were coated overnight with 0.01% HDM in PBS and blocked with 1% BSA in PBS before the addition of serum samples that had been diluted 1:10 in blocking buffer and standards for 1 h. […] Plates were washed an additional six times, streptavidin-HRP (R&D Systems) was added for 30 min and the amount of bound HDM-specific antibody was determined using TMB substrate (Thermo Scientific). […] Using the same SPLUNC1^(−/−) mice/HDM challenge as described in FIG. 15, serum was obtained on day 17 and IgE measured by ELISA.

“Also recorded” adds a separate entry of the source.

Regarding “S18: N-terminal S18 region of SPLUNC1, its ENaC regulatory domain; synthesized peptide (GGLPVPLDQTLPLNVNPA) [reference compound]”, the “ability to suppress Ca2+ signaling, SPLUNC1 mutants/peptides” value in the test with hASMCs was “did not inhibit SOCE”.

On to “DITLVHDIVNMLIHG (listed as Homo sapiens) [SEQ ID NO:3, amino acids 235-249 of human SPLUNC1]”, for which, in test [1] (peptide 320 μM / 320 μM intranasally once per day on day 15 and day 16), the “eosinophil influx (bronchoalveolar lavage)” value is “decreased”. The “bronchoalveolar lavage total cell count” value is “significantly reduced” in test [1] (peptide 320 μM / 320 μM intranasally once per day on day 15 and day 16, listed as short α6 peptide); “reduce inflammatory cell counts” in test [1] (peptide 320 μM / 320 μM intranasally once per day on day 15 and day 16, listed as α6 peptide). For the same molecule, the “neutrophil influx (bronchoalveolar lavage)” value in test [1] (peptide 320 mM / 320 μM intranasally once per day on day 15 and day 16) is on record as “decreased”. Further, in test [2], the “plasma (serum) HDM-specific IgE levels” value is “significantly reduced; also recorded: reduce blood IgE levels”.

Regarding “DITLVHDIVNMLIHGLQFVIKV (listed as Homo sapiens) [SEQ ID NO:2, amino acids 235-256 of human SPLUNC1]”, the “thapsigargin (TG)-induced Ca2+ flux (peak fura-2 ratio change)” value in the test with hASMCs is given as “inhibited”; in the test with hASMCs (listed as SPLUNC1 derived peptide) it was “inhibits thapsigargin-induced Ca^2+ release”.

B1: mouse SPLUNC1: mouse SPLUNC1 protein (protein)
chain: QLAGLPLPLGQGPPLPLNQGPPLPLNQGQLLPLAQGLPLAVSPALPSNPTDLLAGKFTDALSGGLLSGGLLGILENIPLLDVIKSGGGNSNGLVGGLLGKLTSSVPLLNNILDIKITDPQLLELGLVQSPDGHRLYVTIPLGLTLNVNMPVVGSLLQLAVKLNITAEVLAVKDNQGRIHLVLGDCTHSPGSLKISLLNGVTPVQSFLDNLTGILTKVLPELIQGKVCPLVNGILSGLDVTLVHNIAELLIHGLQFVIKV
For B1, in the test with hASMCs, the “ability to suppress Ca2+ signaling, SPLUNC1 mutants/peptides” value is given as “Inhibition was not different”.
